Assay [1] deals with B. suis in J774A.1 murine macrophage-like cells. It is filed as cell-based, Brucella suis.
The next assay concerns Brucella suis 1330. It is filed as cell-based.
The next assay concerns Brucella melitensis 16M. It is filed as cell-based.
In the next assay the test system is Brucella abortus 2308. It is filed as cell-based.

Marks after values point to notes of the source that are not given here.

On to “H-KFFKFFKFFK-O-catactcttcct-NH2 [Anti-lacZ, reference compound]”, for which, in assay [1], the “Log CFU” value was 3.45 ± 0.31 Log CFU and the Log reduction entry is recorded as “+0.17”. Also, in the assay with Brucella suis 1330, the “Log CFU/100 μL/well” value worked out at 2.83 ± 0.13 Log CFU/100 μL/well, the Log reduction is reported as 0.23 and the “inhibition of growth of B. suis in culture (in words)” value (“inhibition of growth of B. suis” for short) is “did not inhibit the growth”.
Take H-KFFKFFKFFK-O-ttcatgcctgt-NH2 [polA]: the “effectiveness against B. melitensis 16M (in words)” value in the assay with Brucella melitensis 16M is on record as “effective”. The “effectiveness against B. abortus 2308 (in words)” value in the assay on Brucella abortus 2308 was “effective”. In assay [1], the “Log CFU” value was 2.27 ± 0.69 Log CFU, the Log reduction was 1.01 ^* and the “inhibition of intracellular B. suis (in words)” value is on record as “showed significant inhibition”. In the assay on Brucella suis 1330, the “Log CFU/100 μL/well” value is 0.54 ± 0.09 Log CFU/100 μL/well and the “inhibition of growth of B. suis” value was “significantly inhibited the growth”.
Consider H-KFFKFFKFFK-O-catttttcgtct-NH2 [asd], for which, in assay [1], the “Log CFU” value is reported as 1.84 ± 0.50 Log CFU, the Log reduction is 1.44 ^* and the “inhibition of intracellular B. suis (in words)” value was “showed significant inhibition”. Further, in the assay with Brucella suis 1330, the “Log CFU/100 μL/well” value came to 3.27 ± 0.09 Log CFU/100 μL/well and the “inhibition of growth of B. suis” value was “not in Brucella cultures”.
Take H-KFFKFFKFFK-O-cattgtgtcgc-NH2 [tsf]: in the assay on Brucella suis 1330, the “Log CFU/100 μL/well” value stood at 1.02 ± 0.92 Log CFU/100 μL/well, the Log reduction is 2.04 ^* and the “inhibition of growth of B. suis” value is “significantly inhibited the growth”.
As to H-KFFKFFKFFK-O-ctcatgtcgg-NH2 [acpP], in assay [1], the “Log CFU” value is 3.37 ± 0.18 Log CFU and the Log reduction entry is given as “+0.09”. For the same substance, in the assay with Brucella suis 1330, the “Log CFU/100 μL/well” value came to 3.05 ± 0.10 Log CFU/100 μL/well and the Log reduction turned out to be 0.01.
Turning to H-KFFKFFKFFK-O-catcgtcgctc –NH2 [rpoB], in the assay with Brucella suis 1330, the “Log CFU/100 μL/well” value is given as 0 ^* Log CFU/100 μL/well, the “Log CFU/mL” value was 0 Log CFU/mL and the “inhibition of growth of B. suis” value was “significantly inhibited the growth”.
On to H-KFFKFFKFFK-O-cattacagatt-NH2 [dnaG], for which, in assay [1], the “Log CFU” value is 1.78 ± 0.56 Log CFU, the Log reduction is reported as 1.50 ^* and the “inhibition of intracellular B. suis (in words)” value was “showed significant inhibition”. Also, in the assay with Brucella suis 1330, the “Log CFU/100 μL/well” value amounted to 2.91 ± 0.02 Log CFU/100 μL/well, the Log reduction is on record as 0.15 and the “inhibition of growth of B. suis” value was “not in Brucella cultures”.
With H-KFFKFFKFFK-O-catatcgtcgga-NH2 [gyrA], in assay [1], the “Log CFU” value is 2.47 ± 0.51 Log CFU, the Log reduction was 0.81 ^* and the “inhibition of intracellular B. suis (in words)” value is on record as “showed significant inhibition”. In addition, in the assay on Brucella suis 1330, the “Log CFU/100 μL/well” value turned out to be 3.92 ± 0.06 Log CFU/100 μL/well, the Log reduction worked out at 0.23 and the “inhibition of growth of B. suis” value is “not in Brucella cultures”.
With H-KFFKFFKFFK-O-gctcatttcgc-NH2 [kdtA], in the assay on Brucella suis 1330, the “Log CFU/100 μL/well” value came to 1.56 ± 1.10 Log CFU/100 μL/well, the Log reduction is recorded as 1.50 ^* and the “inhibition of growth of B. suis” value was “significantly inhibited the growth”.

Source of the values: publication PMC3834731 (International journal of antimicrobial agents, 2013).
